{"source": "patent US20220401564A1", "about": "(DANA-FARBER CANCER INSTITUTE, INC., priority 2019, published 2022)", "key": {"HDAC4": {"target": "T1, HDAC4 (Homo sapiens, UniProt P56524)", "T1 construct": "purchased Reaction Biology", "T1 sequence (P56524 whole entry, canonical isoform)": "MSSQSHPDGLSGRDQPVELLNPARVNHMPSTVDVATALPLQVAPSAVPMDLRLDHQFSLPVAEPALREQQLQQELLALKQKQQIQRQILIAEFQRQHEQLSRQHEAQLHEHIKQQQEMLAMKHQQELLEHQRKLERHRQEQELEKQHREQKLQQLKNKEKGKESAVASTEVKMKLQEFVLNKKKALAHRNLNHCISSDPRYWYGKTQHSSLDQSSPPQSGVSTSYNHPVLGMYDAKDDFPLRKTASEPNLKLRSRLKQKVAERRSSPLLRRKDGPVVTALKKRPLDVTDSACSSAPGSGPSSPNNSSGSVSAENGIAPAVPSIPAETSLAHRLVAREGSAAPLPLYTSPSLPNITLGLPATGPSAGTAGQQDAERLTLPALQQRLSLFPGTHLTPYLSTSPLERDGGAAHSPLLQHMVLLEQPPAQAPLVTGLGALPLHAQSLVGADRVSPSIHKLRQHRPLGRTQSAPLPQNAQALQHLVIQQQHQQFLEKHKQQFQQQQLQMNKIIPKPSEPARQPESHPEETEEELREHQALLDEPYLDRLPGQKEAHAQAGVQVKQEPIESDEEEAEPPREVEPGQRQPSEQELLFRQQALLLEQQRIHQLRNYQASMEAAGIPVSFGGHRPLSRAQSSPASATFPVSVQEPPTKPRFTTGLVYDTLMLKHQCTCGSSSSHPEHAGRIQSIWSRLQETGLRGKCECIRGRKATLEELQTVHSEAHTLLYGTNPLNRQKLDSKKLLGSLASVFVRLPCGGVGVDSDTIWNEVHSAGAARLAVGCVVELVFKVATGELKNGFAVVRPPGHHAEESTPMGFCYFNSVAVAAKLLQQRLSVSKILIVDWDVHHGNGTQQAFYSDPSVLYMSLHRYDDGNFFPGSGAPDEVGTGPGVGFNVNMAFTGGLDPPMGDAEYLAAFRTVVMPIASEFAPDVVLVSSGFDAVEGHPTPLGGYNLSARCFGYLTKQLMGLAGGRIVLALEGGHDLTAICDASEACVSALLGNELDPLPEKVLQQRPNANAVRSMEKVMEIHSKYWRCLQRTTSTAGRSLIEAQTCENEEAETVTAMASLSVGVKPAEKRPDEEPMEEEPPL", "assay": "HDAC enzymatic assay (Reaction Biology), Class 2A substrate", "format": "biochemical", "conditions": "10-dose response curve; read-out: Compound IC50 (M), HDAC4", "method": "(§1) Compounds 2 and 9 were tested in an enzymatic assay from Reaction Biology® against HDAC isoforms.\n(§2) Base Reaction buffer: 50 mM Tris-HCl, pH8.0, 137 mM NaCl, 2.7 mM KCl, and 1 mM MgCl2. Add fresh: 1 mg/ml BSA, 1% DMSO\n(§3) Class 2A Substrate (HDAC4, HDAC5, HDAC7, and HDAC9): Boc-Lys(trifluoroacetyl)-AMC\n(§4) 1. Delivered 2X enzyme in wells of reaction plate except in the control wells and added buffer to control wells. 2. Delivered compounds in 100% DMSO into the enzyme mixture by Acoustic technology (Echo550; nanoliter range). Spin down and pre-incubation. 3. Delivered 2X Substrate Mixture (Fluorogenic HDAC Substrate and co-factor if applicable) in all reaction wells to initiate the reaction. Spin and shake. 4. Incubated for 30 min for Class 2A, 1 h for HDAC1, 2, 3, and 6, and 2 h for the rest of HDAC isoforms and SIRTs at 30° C. with seal.\n(§5) 5. Added Developer with Trichostatin A (or Nicotinamide for SIRTs) to stop the reaction and to generate fluorescent color. 6. The fluorescence that was generated was detected with excitation (Ex) at […] and emission (Em) at 460 nM by the EnVision Multilabel Plate Reader (PerkinElmer®, Santa Clara, Calif., USA).\n(§6) IC50 values were derived from a 10-dose response curve. As shown in Tables 1-2, the addition of a linker and CRBN targeting group altered the isoform selectivity of the SAHA-based degrader compounds."}, "HDAC5": {"target": "T2, HDAC5 (Homo sapiens, UniProt Q9UQL6)", "T2 construct": "purchased Reaction Biology", "T2 sequence (Q9UQL6 whole entry)": "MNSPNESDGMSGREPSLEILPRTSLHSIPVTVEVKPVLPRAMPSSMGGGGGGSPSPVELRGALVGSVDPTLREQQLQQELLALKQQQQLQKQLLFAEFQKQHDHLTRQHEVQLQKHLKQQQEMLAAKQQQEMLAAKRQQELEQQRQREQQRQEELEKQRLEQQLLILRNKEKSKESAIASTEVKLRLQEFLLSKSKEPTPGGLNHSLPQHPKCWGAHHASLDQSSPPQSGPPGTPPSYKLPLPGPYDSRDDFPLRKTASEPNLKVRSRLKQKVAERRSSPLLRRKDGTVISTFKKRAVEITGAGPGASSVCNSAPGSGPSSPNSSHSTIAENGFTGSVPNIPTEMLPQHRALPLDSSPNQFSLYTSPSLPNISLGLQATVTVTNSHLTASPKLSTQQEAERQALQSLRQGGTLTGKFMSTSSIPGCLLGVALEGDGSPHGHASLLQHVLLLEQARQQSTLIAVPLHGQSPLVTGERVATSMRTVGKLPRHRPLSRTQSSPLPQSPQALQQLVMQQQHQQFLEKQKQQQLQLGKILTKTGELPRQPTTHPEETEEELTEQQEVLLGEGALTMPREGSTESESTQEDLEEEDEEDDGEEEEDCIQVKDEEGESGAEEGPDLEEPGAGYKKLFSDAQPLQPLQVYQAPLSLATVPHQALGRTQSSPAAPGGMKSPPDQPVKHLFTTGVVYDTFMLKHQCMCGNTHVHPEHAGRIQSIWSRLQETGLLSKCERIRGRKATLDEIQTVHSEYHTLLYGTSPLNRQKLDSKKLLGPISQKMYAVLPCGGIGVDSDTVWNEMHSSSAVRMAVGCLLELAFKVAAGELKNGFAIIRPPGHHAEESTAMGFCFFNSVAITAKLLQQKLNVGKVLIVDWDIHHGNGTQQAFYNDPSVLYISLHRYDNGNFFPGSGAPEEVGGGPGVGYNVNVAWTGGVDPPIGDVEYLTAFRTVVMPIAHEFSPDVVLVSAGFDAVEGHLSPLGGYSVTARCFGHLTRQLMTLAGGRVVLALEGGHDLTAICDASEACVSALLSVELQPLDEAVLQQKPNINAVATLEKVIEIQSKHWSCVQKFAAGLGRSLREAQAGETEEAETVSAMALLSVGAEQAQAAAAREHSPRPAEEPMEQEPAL", "assay": "HDAC enzymatic assay (Reaction Biology), Class 2A substrate", "format": "biochemical", "conditions": "10-dose response curve; read-out: Compound IC50 (M), HDAC5", "method": "as §1, §2, §3, §4, §5, §6"}, "HDAC1": {"target": "T3, HDAC1 (Homo sapiens, UniProt Q13547)", "T3 construct": "purchased Reaction Biology", "T3 sequence (Q13547 whole entry)": "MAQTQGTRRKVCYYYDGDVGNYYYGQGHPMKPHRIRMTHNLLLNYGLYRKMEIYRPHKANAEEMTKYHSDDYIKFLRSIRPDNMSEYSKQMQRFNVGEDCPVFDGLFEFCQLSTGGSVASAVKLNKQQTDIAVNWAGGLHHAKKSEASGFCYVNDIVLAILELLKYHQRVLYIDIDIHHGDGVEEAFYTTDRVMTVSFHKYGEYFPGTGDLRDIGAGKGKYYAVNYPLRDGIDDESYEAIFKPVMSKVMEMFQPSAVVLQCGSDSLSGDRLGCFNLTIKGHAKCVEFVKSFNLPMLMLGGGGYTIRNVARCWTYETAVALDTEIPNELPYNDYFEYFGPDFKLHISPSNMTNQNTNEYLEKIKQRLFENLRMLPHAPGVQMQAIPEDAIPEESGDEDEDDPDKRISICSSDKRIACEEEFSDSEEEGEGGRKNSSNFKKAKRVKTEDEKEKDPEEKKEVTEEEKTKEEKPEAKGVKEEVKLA", "assay": "HDAC enzymatic assay (Reaction Biology), fluorogenic substrate", "format": "biochemical", "method": "as §1, §2\n(§7) Fluorogenic HDAC General Substrate (HDAC1, HDAC2, HDAC3, HDAC6, HDAC10, and HDAC11): 50 μM, Arg-His-Lys-Lys(Ac)-AMC\nas §4, §5, §6"}, "HDAC2": {"target": "T4, HDAC2 (Homo sapiens, UniProt Q92769)", "T4 construct": "purchased Reaction Biology", "T4 sequence (Q92769 whole entry)": "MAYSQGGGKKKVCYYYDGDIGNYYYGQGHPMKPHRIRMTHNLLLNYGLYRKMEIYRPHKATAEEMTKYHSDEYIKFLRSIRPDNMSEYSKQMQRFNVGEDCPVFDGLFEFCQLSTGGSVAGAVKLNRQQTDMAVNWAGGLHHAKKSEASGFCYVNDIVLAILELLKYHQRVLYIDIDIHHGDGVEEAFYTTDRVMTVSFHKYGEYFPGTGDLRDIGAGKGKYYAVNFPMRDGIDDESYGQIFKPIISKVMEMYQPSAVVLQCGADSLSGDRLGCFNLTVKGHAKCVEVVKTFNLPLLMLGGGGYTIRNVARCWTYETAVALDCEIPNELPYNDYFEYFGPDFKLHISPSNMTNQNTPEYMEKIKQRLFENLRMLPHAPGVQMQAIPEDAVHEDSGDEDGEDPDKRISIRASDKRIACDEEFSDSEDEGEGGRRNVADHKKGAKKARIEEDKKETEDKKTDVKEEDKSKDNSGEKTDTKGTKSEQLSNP", "assay": "HDAC enzymatic assay (Reaction Biology), fluorogenic substrate", "format": "biochemical", "method": "as §1, §2, §7, §4, §5, §6"}, "[1]": {"test_system": "other identified HDAC proteins", "assay": "Change in cellular protein abundance (TMT proteomics) in Kelly cells", "format": "cell-based, human", "conditions": "1 μM, 5 hours, vs DMSO", "method": "Lysis buffer (8 M Urea, 50 mM NaCl, 50 mM 4-(2hydroxyethyl)-1-piperazineethanesulfonic acid (EPPS) pH 8.5, protease and phosphatase inhibitors from Roche®) were added to the cell pellets and homogenized by 20 passes through a 21 gauge (1.25 in. long) needle to achieve a cell lysate with a protein concentration between 1-4 mg mL-1. A micro-BCA assay (Pierce™) was used to determine the final protein concentration in the cell lysate. 200 μg of protein for each sample were reduced and alkylated as described in Donovan et al., Elife 7:e38430 (2018).\nProteins were precipitated using methanol/chloroform. Four volumes of methanol were added to the cell lysate, followed by one volume of chloroform, and finally three volumes of water. The mixture was vortexed and centrifuged to separate the chloroform phase from the aqueous phase. […]\nAnhydrous ACN was added to each peptide sample to a final concentration of 30% v/v, and labeling was induced with the addition of TMT reagent to each sample at a ratio of 1:4 peptide:TMT label. […] The sample channels were combined at a 1:1:1:1:1:1:1:1:1:1:1 ratio, desalted using Cis solid phase extraction cartridges (Waters®) and analyzed by LC-MS for channel ratio comparison. Samples were then combined using the adjusted volumes determined in the channel ratio analysis and dried down in a speed vacuum. […]"}}, "data": [{"smiles": "Cc1ncsc1-c1ccc([C@H](C)NC(=O)[C@@H]2C[C@@H](O)CN2C(=O)[C@@H](NC(=O)CCOCCOCCN(CCc2c[nH]c3ccccc23)Cc2ccc(/C=C/C(=O)NO)cc2)C(C)(C)C)cc1", "note": "[Compound 2, (2S,4R)-1-((S)-14-(tert-butyl)-3-(4-((E)-3-(hydroxyamino)-3-oxoprop-1-en-1-yl)benzyl)-1-(1H-indol-3-yl)-12-oxo-6,9-dioxa-3,13-diazapentadecan-15-oyl)-4-hydroxy-N—((S)-1-(4-(4-methylthiazol-5-yl)phenyl)ethyl)pyrrolidine-2-carboxamide]", "values": [{"measurement": "IC50", "setting": "HDAC4", "result": "1.31e-05", "unit": "M"}, {"measurement": "IC50", "setting": "HDAC5", "result": "2.69e-06", "unit": "M"}, {"measurement": "inhibition of HDAC1 deacetylase activity in vitro (in words)", "setting": "HDAC1", "result": "Moderate inhibition"}, {"measurement": "IC50", "setting": "HDAC1; 10-dose response curve, read-out: Compound IC50 (M), HDAC1", "result": "4.81e-07", "unit": "M"}, {"measurement": "inhibition of HDAC2 deacetylase activity in vitro (in words)", "setting": "HDAC2", "result": "Moderate inhibition"}, {"measurement": "IC50", "setting": "HDAC2; 10-dose response curve, read-out: Compound IC50 (M), HDAC2", "result": "1.03e-06", "unit": "M"}, {"measurement": "cellular protein levels of the other identified HDAC proteins (heat map FIG. 2)", "setting": "[1]", "result": "did not affect"}]}]}
